Measured values from patent US20220143148A1, “COMPOSITIONS AND METHODS FOR MODULATING CGRP SIGNALING TO REGULATE INTESTINAL INNATE LYMPHOID CELLS” (The Broad Institute, Inc., priority 2019, published 2022).

Key:
TDAG8 (GPR65) = details: cited from earlier work
TDAG8 = biological target: T1, TDAG8 (Rattus norvegicus, UniProt A0A8I6AHC6); details: in vivo; cited from earlier work
T1 construct: host or cells: rat, in vivo (endogenous receptor)

KLRG1+ ILC2s [1] = assay: In vitro proliferation assay (CellTrace Violet, flow cytometry); type: cell-based, mouse; details: IL-25 with α-CGRP plus adenylate cyclase inhibitor
Description: (§1) Flow cytometry and cell sorting. Cells were washed and suspended in MACS buffer (pH 7.4; PBS plus 2% FCS and 2 mM EDTA). Nonspecific antibody binding was blocked with CD16/CD32 (2.4G2) antibody for 15 min on ice. Cells were then stained with antibody cocktails for 30 min at 4° C. Lineage-positive cells were excluded for analyzing ILCs by staining for CD3ε (145-2C11), CD5 (53-7.3), CD19 (6D5), CD11b (M1/70), CD8 (53-6.7), CD11c (N418), Gr-1 (RB6-8C5), TCRγδ (eBioGL3 (GL-3, GL3)) and TCRβ (H57-597). To analyze mast cells, lineage-positive cells were excluded by staining for CD3ε, CD5, CD19, CD11c and SiglecF (E50-2440). For surface staining, antibodies for KLRG1 (2F1), CD45 (30-F11), CD127 (A7R34), CCR6 (29-2L17), NKp46 (29A1.4), CD90.2 (53-2.1), FcεRI (Mar-1), IgD (11-26c.2a) and ST2 (DJ8) were used. For intracellular staining, cells were fixed and permeabilized using the Foxp3 transcription factor staining buffer set, followed by staining with anti-GATA-3 (TWAJ) or anti-RORγt (B2D) antibodies. Dead cells were excluded with 7-AAD or Fixable Viability Dye eFluor 780. Flow cytometry was performed on Cytoflex (Beckman Coulter) and analyzed with FlowJo software. Sorting was performed with the SH800S Cell Sorter (Sony Biotechnology).
ILC2 culture. […]

intestinal KLRG1+ ILC2s = assay: Bulk RNA-seq of intestinal KLRG1+ ILC2s stimulated in vitro; type: cell-based, mouse; details: IL-25 alone in vitro
Excerpt: To determine if α-CGRP can directly trigger signaling in ILC2s and impact their transcriptional states under inflammatory conditions, Applicants performed bulk RNA-seq of KLRG1^+ ILC2s isolated from the small intestine and stimulated in vitro with IL-25 alone or together with α-CGRP. […] Thus, α-CGRP inhibits IL-25-induced proliferation and activation of intestinal KLRG1+ILC2s.
The presence at homeostasis of α-CGRP receptors on ILC2s and α-CGRP's expression on ChAT^+ intestinal neurons led Applicants to hypothesize that it has an effect on ILC2s during homeostasis. To test this hypothesis, Applicants next measured the expression profiles of intestinal KLRG1^+ ILC2s stimulated in vitro by α-CGRP alone, and identified genes differentially expressed under this signal (FIG. 6D, Methods).
ILC2 culture. Sort-purified intestinal KLRG1^+ ILC2s were incubated in RPMI supplemented with 10% FCS, 10 mM Hepes, 1 mM sodium pyruvate, 10% FBS, 80 μm 2-mercaptoethanol, 2 mM glutamine, 100 U/ml penicillin, […] streptomycin, 100 ng/ml IL-2 and 100 ng/ml IL-7 in 96-well round bottom plate at 37° C. and 5% CO2. If indicated, the culture was supplemented with 100 ng/ml IL-25. For the in vitro proliferation assay, cells from different mice were pooled and labeled with CellTrace Violet, and then cultured at 1,000-1,500 cells per well with 10 μg/ml α-CGRP for 60 hours. When indicated, 10 μM forskolin or 1 μM SQ 22, 536 in DMSO was supplied and cells were cultured for 40 hours. For bulk RNA-seq, cells from individual mice were stimulated at 200 cells per well with 0.4 μg/ml α-CGRP for 3 hours. For bulk ATAC-seq, cells were stimulated with 0.4 μg/ml α-CGRP for 2 hours.
Bulk RNA-seq. 200 ILC2s from each condition were lysed in 10 ul TCL buffer plus 0.5% 2-Mercaptoethanol. Libraries were processed with SMART-Seq2 (Picelli et al., 2013) with at least three replicates per condition, and paired-end sequenced (75 bp×2) with a […] Nextseq 500 high output V2 kit.
Reads were aligned to the mouse reference genome (NCBI 38, mm10) using Bowtie (Langmead et al., 2009) with default parameters, and expression abundances were estimated using RSEM software (Li and Dewey, 2011). The differential gene expression analysis was performed with edgeR (Robinson et al., 2010) with default parameters.

KLRG1+ ILC2s [2] = assay: IL-25-induced in vivo ILC2 activation model; set-up: species or system mouse; details: IL-25 administration alone
Excerpt: Intraperitoneal administration of α-CGRP impaired IL-25-induced expansion of KLRG1^+ ILC2s (FIGS. 5B and 12A), consistent with the in vitro results. Recent work has shown that intestinal KLRG1^+ ILC2s can migrate to mesenteric lymph nodes (mLNs) and other tissues during inflammation via sphingosine 1-phosphate (S1P)-mediated chemotaxis (Huang et al., 2018). To determine whether α-CGRP primarily impacts intestinal or mLN ILC2s, Applicants relied on the fact that intestinal GATA3^+ ILC2s are generally phenotypically KLRG1^+ST2^− (data not shown), whereas mLN ILC2s are mainly ST2^+ at steady state (FIG. 5C). IL-25 administration increased the frequency of both KLRG1^+ST2^− inflammatory ILC2s and ST2^+ ILC2s in mLNs (FIGS. 5C-E and 12B). […] Thus, α-CGRP preferentially regulates the response of intestinal KLRG1^+ST2^− ILC2s. […] Taken together, α-CGRP antagonized expansion of intestinal KLRG1^+ ILC2s in two different type 2 inflammatory models.
To activate ILC2s in vivo, 200 ng of IL-25 was intraperitoneally injected into 7-10 weeks old mice daily for two days. 1 μg α-CGRP was injected together as noted.
as §1
Immunofluorescence staining and imaging. The small intestines were fixed in 2% PFA, embedded in O.C.T. Compound and sliced into 10 μm by frozen section. The slides were blocked with 0.1% Triton X-100, 2% FCS and donkey serum. […] The images were analyzed with ImageJ.

T1 sequence (A0A8I6AHC6 1-337): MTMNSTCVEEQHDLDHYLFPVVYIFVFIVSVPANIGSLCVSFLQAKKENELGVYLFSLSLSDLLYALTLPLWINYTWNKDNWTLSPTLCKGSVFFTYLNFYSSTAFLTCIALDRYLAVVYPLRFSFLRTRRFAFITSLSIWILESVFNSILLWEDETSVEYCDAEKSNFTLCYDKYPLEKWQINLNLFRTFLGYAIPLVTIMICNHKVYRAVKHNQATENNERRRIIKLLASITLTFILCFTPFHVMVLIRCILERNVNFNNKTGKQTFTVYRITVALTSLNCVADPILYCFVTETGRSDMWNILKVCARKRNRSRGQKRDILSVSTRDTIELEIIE

CN1N=C(SCc2ccc(Cl)cc2Cl)Sc2c1cnn(C)c2=O [BTB09089, 3-[(2,4-dichlorobenzyl)thio]-1,6-dimethyl-5,6-dihydro-1H-pyridazino[4,5-e][1,3,4]thiadiazin-5-one]
TDAG8 activation in vitro (TDAG8 (GPR65)): activate
efficacy in ischemic stroke murine disease model (TDAG8): in vivo efficacy

Nc1ncnc2c1ncn2C1CCCO1 (stereo not drawn) [SQ22, 536, reference compound]
α-CGRP inhibition of ILC2 proliferation (KLRG1+ ILC2s [1]): partially rescues

B1: IL-25: cytokine used to activate ILC2s in vitro and in vivo (protein, UniProt Q8VHH8 17-169, looked up)
Interleukin-25: VSLRIQEGCSHLPSCCPSKEQEPPEEWLKWSSASVSPPEPLSHTHHAESCRASKDGPLNSRAISPWSYELDRDLNRVPQDLYHARCLCPHCVSLQTGSHMDPLGNSVPLYHNQTVFYRRPCHGEEGTHRRYCLERRLYRVSLACVCVRPRVMA
activation phenotype (expression of type 2 cytokines Il13, Il5 and mitotic genes such as Myc) (intestinal KLRG1+ ILC2s): induced the expected activation phenotype
frequency of KLRG1+ST2− inflammatory ILC2s in mLNs (KLRG1+ ILC2s [2]): increased
frequency of ST2+ ILC2s in mLNs (KLRG1+ ILC2s [2]): increased
